“And” between values parts separate entries of the source, which are not always exact repeats. Identical values can stand only once. Like-named read-outs stand apart in the source and are kept apart here.
Key:
CAMKII gamma = target: T1, CAMKII gamma (Homo sapiens, UniProt Q13555); test: CAMKII gamma kinase activity, ADP Glo (Promega); assay type: biochemical; conditions: for CAMKII gamma kinase activity inhibition (in words): 10 or 50 uM ATP
T1 construct: purchased Promega V3531
Method: An enzymatic study was conducted to evaluate the inhibition of CAMKII gamma by ES-3000 (Tetrandrine). CAMKII gamma kinase activity was measured using […] purchased from Promega following the Promega protocol. CAMKII enzyme system purchased from Promega (V3531). ADP Glo was used for detection. Assay optimized for linearity of protein and time. Conditions for inhibitor screening 25 ng CAMKII, 20 min. incubations, inhibitor or DMSO (5%) at RT in 20 uL total volume. Inhibitor, ATP (10 or 50 uM), substrates and buffer added to tubes and reactions started with enzyme. […] Reactions terminated at 20 min. by adding ADP Glo reaction following manufactures instructions. All reactions were done in duplicate. Calculations of percent (%) inhibition determined by dividing the mean activity at each condition by the mean of the DMSO control times 100.

beta-Actin = beta-Actin level in K562 cell extracts by western blot; assay type: cell-based, human; conditions: K562 cells treated with up to 40 uM
Method: Briefly, the method to quantitate β-catenin protein by western blot was as follows: Extracts of K562 cells (untreated and treated with various concentrations of tetrandrine) were concentrated to 0.4 ml using Centricon-3 column to yield a protein concentration of approximately 2 mg/ml. Samples were mixed with 5× Laemmli buffer and loaded on 8-16% Tris-Glycine gradient gel, then polyacrylamide gel electrophoresis (PAGE) was run at 85 volts for 100 minutes at 6° C. and proteins were transferred on PVDF membrane at 70 Volts for 85 minutes at 8° C. Membrane was blocked with 5% milk in Tris-buffered Saline containing 0.1% TW-20 (TBST). Membrane was incubated with primary antibody for 18 hours at 4° C. followed by 3 washes, 5 minutes each, with TBST and incubated with secondary antibody in TBST for 2 hours at 25° C. The membrane was washed again with TBST as described above and incubated with ECL-2 substrate for 5 minutes and scanned on Kodak Image Station. After scan, blot was stripped of primary and secondary antibodies and re-probed with anti-beta Actin antibody as described above. Protein bands in WB images were quantitated using Molecular Imaging software pack MIS-4.0 software and tabulated in Excel spreadsheet.

bcr-abl = test: TaqMan qPCR assay for bcr-abl and abl in plucked CML colonies; assay type: cell-based, human; conditions: 10 μM
Method: To determine whether a colony was normal (bcr-abl negative and abl positive) or diseased (bcr-abl and abl positive), a TaqMan®-based qPCR test was used. In order to score the colonies positive or negative, the following scoring strategy was performed. All colonies were assayed in duplicate for each target. If a singleton reaction yielded a Ct then the reaction scored a 1. If no Ct was recorded, a score of 0 was given. From here, we used a logic test to score the colonies into four different categories: bcr-abl and abl, abl only, bcr-abl only or both negative. In order to be placed in a category, a colony must score a 1 in both reactions. However, if a colony only scored a 1 for one out of the two reactions, this colony was removed from the analysis. If a colony scored a 1 for each reaction (both ber-abl and abl) the colony was placed into the ber-abl and abl category, signifying it as a diseased colony. Alternatively, if a colony scored a 1 in only both of the ber-abl reactions or a 1 in only both the abl reactions, the colony was placed in the ber-abl only or abl only category, respectively. If the colony scored a 0 for both targets (bcr-abl and abl) then the colony was placed in the both negative category.
In total 48 primary colonies and 31 secondary replated colonies were assessed for bcr-abl and abl using qPCR. […] Thirteen secondary colonies treated with Tetrandrine at 10 μM were assessed.

Pgp = Pgp (Homo sapiens, UniProt P08183); conditions: cited from earlier work
Sequence of Pgp (P08183 whole entry): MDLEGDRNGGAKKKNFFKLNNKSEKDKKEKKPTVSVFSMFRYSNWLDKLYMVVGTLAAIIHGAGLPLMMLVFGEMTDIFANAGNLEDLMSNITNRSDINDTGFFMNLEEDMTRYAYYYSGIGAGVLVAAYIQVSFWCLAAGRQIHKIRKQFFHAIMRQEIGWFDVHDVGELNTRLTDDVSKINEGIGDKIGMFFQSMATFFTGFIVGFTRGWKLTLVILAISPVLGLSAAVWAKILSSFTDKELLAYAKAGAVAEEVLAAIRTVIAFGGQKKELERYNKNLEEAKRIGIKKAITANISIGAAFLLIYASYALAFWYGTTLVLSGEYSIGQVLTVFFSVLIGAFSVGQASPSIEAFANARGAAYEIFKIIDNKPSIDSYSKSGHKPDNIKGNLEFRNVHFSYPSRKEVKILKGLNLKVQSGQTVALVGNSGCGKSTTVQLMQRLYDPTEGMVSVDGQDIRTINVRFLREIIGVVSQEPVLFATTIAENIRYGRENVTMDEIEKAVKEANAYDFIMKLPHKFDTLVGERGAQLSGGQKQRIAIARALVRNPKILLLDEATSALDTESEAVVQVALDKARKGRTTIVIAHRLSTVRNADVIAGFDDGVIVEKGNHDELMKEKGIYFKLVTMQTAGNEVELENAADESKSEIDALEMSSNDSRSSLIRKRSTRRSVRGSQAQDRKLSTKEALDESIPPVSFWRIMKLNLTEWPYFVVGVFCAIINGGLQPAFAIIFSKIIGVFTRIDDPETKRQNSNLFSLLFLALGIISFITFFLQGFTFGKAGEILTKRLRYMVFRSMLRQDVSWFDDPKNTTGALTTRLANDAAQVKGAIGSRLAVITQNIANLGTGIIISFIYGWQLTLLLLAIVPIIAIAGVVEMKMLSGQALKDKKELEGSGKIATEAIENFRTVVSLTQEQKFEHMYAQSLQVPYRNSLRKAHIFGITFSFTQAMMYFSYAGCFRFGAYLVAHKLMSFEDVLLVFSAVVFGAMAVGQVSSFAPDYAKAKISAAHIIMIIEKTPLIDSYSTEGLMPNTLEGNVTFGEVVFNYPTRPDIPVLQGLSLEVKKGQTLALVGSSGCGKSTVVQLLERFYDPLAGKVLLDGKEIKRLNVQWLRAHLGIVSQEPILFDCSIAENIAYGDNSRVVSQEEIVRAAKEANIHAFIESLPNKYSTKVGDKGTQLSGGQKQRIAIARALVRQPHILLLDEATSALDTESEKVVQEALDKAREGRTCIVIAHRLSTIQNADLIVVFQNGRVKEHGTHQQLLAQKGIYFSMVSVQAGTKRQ

calmodulin (CaM) = calmodulin (CaM) (Homo sapiens, UniProt P0DP23); conditions: cited from earlier work
[1] = IV, cited from earlier work
[2] = Primary colonies, of 17 colonies
[3] = Secondary colonies, of 10 colonies

T1 sequence (Q13555 whole entry): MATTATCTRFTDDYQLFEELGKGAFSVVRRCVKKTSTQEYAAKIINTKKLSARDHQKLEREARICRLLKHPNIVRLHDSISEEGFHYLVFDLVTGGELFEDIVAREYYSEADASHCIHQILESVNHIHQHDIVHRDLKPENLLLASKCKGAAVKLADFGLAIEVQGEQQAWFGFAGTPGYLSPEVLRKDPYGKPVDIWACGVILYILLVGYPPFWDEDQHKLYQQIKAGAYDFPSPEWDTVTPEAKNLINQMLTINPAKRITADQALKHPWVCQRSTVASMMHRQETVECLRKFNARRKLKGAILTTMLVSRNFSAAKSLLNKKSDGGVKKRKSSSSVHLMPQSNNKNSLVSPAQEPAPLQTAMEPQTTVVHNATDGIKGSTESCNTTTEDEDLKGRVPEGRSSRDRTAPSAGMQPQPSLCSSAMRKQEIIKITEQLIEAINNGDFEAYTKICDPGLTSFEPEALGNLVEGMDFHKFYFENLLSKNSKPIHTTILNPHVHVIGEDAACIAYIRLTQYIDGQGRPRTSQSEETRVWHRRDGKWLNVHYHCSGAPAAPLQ

**Q.** For “6,6′,7,12-tetramethoxy-2,2′-dimethyl-berbaman [ES-3000]”, which “% inhibition” value (CAMKII gamma; 30 uM, 10 uM ATP) is on record?
**A.** 29.1% and 29%

**Q.** What about the “CamKIIγ activity, mean” value (CAMKII gamma; 30 uM, 10 uM ATP) of the same substance?
**A.** 3.09 units

**Q.** And the “CamKIIγ activity, units (duplicates)” value (CAMKII gamma; 30 uM, 10 uM ATP)?
**A.** 2.75 units and 3.43 units

**Q.** What about the “kinase activity, % of DMSO control” value (CAMKII gamma; 30 uM, 10 uM ATP) of the same substance?
**A.** 71%

**Q.** What about the “% inhibition” value (CAMKII gamma; 30 uM, 50 uM ATP) of the same substance?
**A.** 15%

**Q.** And the “CamKIIγ activity, mean” value (CAMKII gamma; 30 uM, 50 uM ATP)?
**A.** 10.55 units

**Q.** What about the “CamKIIγ activity, units (duplicates)” value (CAMKII gamma; 30 uM, 50 uM ATP) of the same substance?
**A.** 10.4 units and 10.7 units

**Q.** And the “kinase activity, % of DMSO control” value (CAMKII gamma; 30 uM, 50 uM ATP)?
**A.** 85%

**Q.** And the “% inhibition” value (CAMKII gamma; 100 uM, 10 uM ATP)?
**A.** 34.2% and 34%

**Q.** What about the “CamKIIγ activity, mean” value (CAMKII gamma; 100 uM, 10 uM ATP) of the same substance?
**A.** 2.87 units

**Q.** What about the “CamKIIγ activity, units (duplicates)” value (CAMKII gamma; 100 uM, 10 uM ATP) of the same substance?
**A.** 2.5 units and 3.24 units

**Q.** And the “kinase activity, % of DMSO control” value (CAMKII gamma; 100 uM, 10 uM ATP)?
**A.** 66%

**Q.** And the “% inhibition” value (CAMKII gamma; 100 uM, 50 uM ATP)?
**A.** 36%

**Q.** What about the “CamKIIγ activity, mean” value (CAMKII gamma; 100 uM, 50 uM ATP) of the same substance?
**A.** 7.955 units

**Q.** What about the “CamKIIγ activity, units (duplicates)” value (CAMKII gamma; 100 uM, 50 uM ATP) of the same substance?
**A.** 8.81 units and 7.1 units

**Q.** And the “kinase activity, % of DMSO control” value (CAMKII gamma; 100 uM, 50 uM ATP)?
**A.** 64%

**Q.** What about the “% inhibition” value (CAMKII gamma; 250 uM, 10 uM ATP) of the same substance?
**A.** 90.6% and 91%

**Q.** And the “CamKIIγ activity, mean” value (CAMKII gamma; 250 uM, 10 uM ATP)?
**A.** 0.41 units

**Q.** And the “CamKIIγ activity, units (duplicates)” value (CAMKII gamma; 250 uM, 10 uM ATP)?
**A.** 0.34 units and 0.48 units

**Q.** What about the “kinase activity, % of DMSO control” value (CAMKII gamma; 250 uM, 10 uM ATP) of the same substance?
**A.** 9%

**Q.** And the “CAMKII gamma kinase activity inhibition (in words)” value (CAMKII gamma)?
**A.** inhibited CAMKII gamma kinase activity in a dose dependent manner

**Q.** And the “CAMKII gamma kinase activity inhibition (in words)” value (CAMKII gamma; listed as TET)?
**A.** inhibited the activation of CaMKIIγ in a dose dependent manner

**Q.** What about the “beta-Actin level (quantitation of protein bands)” value (beta-Actin) of the same substance?
**A.** not affected significantly

**Q.** And the abl only colonies (bcr-abl; Primary colonies)?
**A.** 1

**Q.** And the “bcr-abl and abl colonies” value (bcr-abl; Primary colonies)?
**A.** 11

**Q.** What about the bcr-abl only colonies (bcr-abl; Primary colonies) of the same substance?
**A.** 1

**Q.** And the both negative colonies (bcr-abl; Primary colonies)?
**A.** 4

**Q.** What about the “colonies abl positive only” value (bcr-abl; [2]) of the same substance?
**A.** 5.8%

**Q.** And the “colonies bcr-abl and abl positive” value (bcr-abl; [2])?
**A.** 65%

**Q.** What about the “colonies negative for both targets” value (bcr-abl; [2]) of the same substance?
**A.** 23.5%

**Q.** What about the “colonies bcr-abl and abl positive” value (bcr-abl; Primary colonies, of 17 colonies, listed as Tetrandrine) of the same substance?
**A.** 64.7%

**Q.** What about the abl only colonies (bcr-abl; Secondary colonies) of the same substance?
**A.** 1

**Q.** What about the “bcr-abl and abl colonies” value (bcr-abl; Secondary colonies) of the same substance?
**A.** 0

**Q.** What about the bcr-abl only colonies (bcr-abl; Secondary colonies) of the same substance?
**A.** 0

**Q.** And the both negative colonies (bcr-abl; Secondary colonies)?
**A.** 9

**Q.** And the “colonies negative for both bcr-abl and abl” value (bcr-abl; [3])?
**A.** 90%

**Q.** What about the “colonies positive for abl only” value (bcr-abl; [3]) of the same substance?
**A.** 10%

**Q.** What about the Pgp substrate (Pgp) of the same substance?
**A.** not a substrate of Pgp

**Q.** What about the “function of Pgp” value (Pgp) of the same substance?
**A.** directly inhibits the function of Pgp in a dose-dependent manner

**Q.** And the “binding to calmodulin (CaM)” value (calmodulin (CaM))?
**A.** bind competitively to calmodulin (CaM)

**Q.** And the “recommended dose for a Phase II study” value ([1]; daily ×5, repeated every 2 weeks)?
**A.** 200 mg/m2

**Q.** What about the “recommended dose for a Phase II study” value ([1]; single dose repeated weekly) of the same substance?
**A.** 300 mg/m2
